Values belong to the compound of their own block, whether it stands above or below them.
Legend:
[1] = Extent of emulsification, droplet size by optical microscope; assay type: physicochemical
Procedure: The extent of emulsification was determined by mixing the preconcentrate and water in a ratio of 1:100 and 1:10 by gentle inversion (5×), visual inspection, and examination under an optical microscope, using a polarizing filter to check for the appearance of crystals. Droplet size determined by this approach is expressed as the upper limit for the average droplet size, since submicron droplets cannot be detected by this method.

[2] = Microsolubility estimate by repeated addition of vehicle; assay type: physicochemical
Procedure: (§1) For CETP inhibitors where quantities were limited, an estimate of solubility was obtained by addition of vehicle to a known quantity of the compound and mixing in an ultrasonicator bath for 90 minutes, followed by overnight equilibration at ambient temperature. Addition of vehicle was repeated until a solution was achieved.
as §1, with “limited or the samples were amorphous solids,” for “limited,”, “achieved. From the total volume of vehicle added to solubilize the CETP inhibitor compound, the solubility value, or so-called microsolubility, was calculated by the equation: Weight of sample (mgA)/vehicle volume (mL)=Microsolubility (mgA/mL)” for “achieved.”

[3] = Equilibrium solubility in excipients, vehicles and emulsion preconcentrates; assay type: physicochemical
Procedure: The solubility of CETP inhibitors in excipients and in formulations was determined by adding an excess of compound to the medium in question. The mixture was agitated by rotation over a period of days at ambient temperature until the concentration in solution had reached an equilibrium as judged by similar measurements for consecutive time points. Concentrations were measured by filtration of aliquots with a PTFE syringe filter and assay by HPLC as described in Example 11.
The solubility of crystalline CETP inhibitors in representative vehicles was determined by adding an excess of compound to the vehicle in question. The mixture was agitated by rotation over a period of days at ambient temperature until the concentration in solution had reached equilibrium as judged by similar measurements for consecutive time points. Concentrations were measured by filtration of aliquots with a PTFE syringe filter and assayed by HPLC.
The concentrations of CETP inhibitor in each vehicle were assayed at intervals by dilution of aliquots into acetonitrile and gradient HPLC analysis on a Water Symmetry C-8 column (3.9×150 mm, 5 micron) at 30° C. at a flow rate of 1 mL/min. […] The detection method was UV absorbance at 210 nm.

Pharmacokinetics in dogs = assay type: in vivo, Male Beagle dogs; settings: for Cmax / Tmax: male, Beagle, dog, plasma, po
Procedure: Male Beagle dogs (n=6) between the ages of 2-5 and weighing 6-12 kg were dosed with capsules followed by 50 mL of water. […] The dogs were either fasted or fed just prior to dosing with 14 g of dry dog food and 8 gm olive oil. The same set of dogs were used for all formulations, except where indicated. […]
Unless otherwise indicated, results are for the fasted state. Miglyol® softgels have a very low fasted exposure and thus a high food effect. The fasted exposure is higher than that for crystalline suspension, while the fed exposure using this high oil meal is the same. Thus Miglyol softgels provide a lower food effect than crystalline drug. At the same dose of 90 mgA, formulations such as A, O, and C that include surfactants and cosolvent have much higher fasted exposures and only a ca. 3× food effect. The fed exposures are also higher than for Miglyol® 812 softgels and crystalline drug. Poorer fasted exposure was obtained for Formulation WW, which contains a high level of ethyl lactate as a cosolvent.

[4] = Emulsion from oil solution plus equal volume of water: particle size and stability; assay type: physicochemical
Procedure: An emulsion was prepared by combining 1 volume of oil solution with an equal volume of de-ionized water. […] The emulsion is then stirred continuously to maintain homogeneity.
An emulsion was prepared by combining 1 volume of oil solution with an equal volume of de-ionized water. This mixture was stirred for 10 minutes and then vortex mixed for 2 minutes. […] It was stirred continuously to maintain homogeneity.
An emulsion was prepared by combining combining 1 volume of oil solution with an equal volume of de-ionized water. This mixture was stirred for 10 minutes and then vortex mixed for 2 minutes. […] It was stirred continuously to maintain homogeneity.

[5] = Dynamic light scattering particle size analysis of emulsions; assay type: physicochemical
Procedure: Preliminary particle size analysis data has been obtained on selected formulations using a dynamic light scattering particle size analyzer (ZetaPals, Brookhaven Instruments, Inc.) for measurement of sub-micron particle distribution. The formulation solutions were diluted 1:100 in HPLC-grade water (previously filtered through a 0.22 μm syringe filter). The resulting mixture was gently inverted five times to create the emulsion. Each emulsion sample was then analyzed at a temperature of 37° C. Triplicate measurements were made at each time point (0, 30 min).

[6] = equilibrium, vehicle Miglyol 812
[7] = equilibrium, vehicle Miglyol 812/propylene carbonate/Cremophor EL (60/20/20)
[8] = 90 mg, Fed, Miglyol 812/Triacetin/Cremophor RH40/Capmul MCM (20/30/20/30)
[9] = 90 mg, fasted, Miglyol 812/Triacetin/Cremophor RH40/Capmul MCM (20/30/20/30)
[10] = preconcentrate Miglyol 812/Triacetin/Polysorbate 80/Capmul MCM 22/27/20/31 % v/v
[11] = 60 mg, fasted, Miglyol 812/Triacetin/Polysorbate 80/Capmul MCM (22/27/20/31)

Ave Droplet Size (1:100 dilution) ([1]; preconcentrate Miglyol 812/Triacetin/Polysorbate 80/Capmul MCM 20/30/20/30 % v/v): <5 μ
Solubility ([2]; Capmul MCM, oil or lipid, thermodynamic from solid, read-out: Microsolubility): < 100 mg/mL
Solubility ([2]; Crodamol GTCC, oil or lipid, thermodynamic from solid, read-out: Microsolubility): < 20 mg/mL
Solubility ([2]; Crodamol GTCC/Capmul MCM/Polysorbate 80 (40/40/20), oil or lipid, thermodynamic from solid, read-out: Microsolubility): < 100 mg/mL
Solubility ([2]; Olive oil, oil or lipid, thermodynamic from solid, read-out: Microsolubility): < 100 mg/mL
Solubility ([2]; PEG 400, organic solvent or mixture, thermodynamic from solid, read-out: Microsolubility): < 100 mg/mL
Solubility ([2]; oil or lipid, thermodynamic from solid, read-out: Microsolubility): < 100 mg/mL
Solubility ([2]; preconcentrate Miglyol 812/Triacetin/Polysorbate 80/Capmul MCM 20/30/20/30 % v/v, amorphous solid): ≧100 mgA/mL
SMILES: CCC(CC)CC1(C(=O)Nc2ccccc2SC(=O)C(C)C)CCCCC1 [Compound B, Propanethioic acid, 2-methyl-, S-[2-[[[1-(2-ethylbutyl)cyclohexyl]carbonyl]amino]phenyl]ester]

Solubility ([3]; equilibrium, vehicle Capmul MCM): 58 mgA/ml
Solubility ([3]; equilibrium, vehicle Cremophor EL): 18 mgA/ml
Solubility [3, 6]: 61 mgA/ml
Solubility ([3]; equilibrium, vehicle Miglyol 812/Cremophor EL 80/20): 51 mgA/ml
Solubility [3, 7]: 208 mgA/ml
Solubility ([3]; equilibrium, vehicle Olive oil): 13 mgA/ml
Solubility ([3]; equilibrium, vehicle Olive oil/Cremophor EL 80/20): 14 mgA/ml
Solubility ([3]; equilibrium, vehicle Triacetin): 239 mgA/ml
Solubility ([3]; preconcentrate Miglyol 812/Triacetin/Cremophor RH40/Capmul MCM 20/30/20/30 % v/v): 172 mgA/mL
AUG 0-tlast (Pharmacokinetics in dogs; Fed, 90 mg, Miglyol 812/Triacetin/Cremophor RH40/Capmul MCM (20/30/20/30), Tlast 24 hr): 4840 ± 1230 ng·h/mL
AUG 0-tlast (Pharmacokinetics in dogs; fasted, 90 mg, 100 mg/mL in Miglyol 812/Triacetin/Cremophor RH40/Capmul MCM (20/30/20/30), Tlast 24 hr): 3450 ± 960 ng·h/mL
Cmax (Pharmacokinetics in dogs; [8]): 1200 ± 410 ng/mL
Tmax (Pharmacokinetics in dogs; [8]): 1.5 h
Cmax (Pharmacokinetics in dogs; [9]): 860 ± 310 ng/mL
Tmax (Pharmacokinetics in dogs; [9]): 1.7 h
SMILES: CC[C@@H]1C[C@H](N(Cc2cc(C(F)(F)F)cc(C(F)(F)F)c2)C(C)=O)c2cc(C(F)(F)F)ccc2N1C(=O)OC(C)C [Compound D, [2R,4S] 4-[acetyl-(3,5-bis-trifluoromethyl-benzyl)-amino]-2-ethyl-6-trifluoromethyl-3,4-dihydro-2H-quinoline-1-carboxylic acid isopropyl ester]
chemical degradation or crystallization ([4]; Example 19 oil after storage for 8 days or emulsion after 24 hr): No chemical degradation based on HPLC analysis or crystallization based on microscopic examination was detected

Mean Diam. ([5]; 30 min., 100 mg/mL in Miglyol 812/Triacetin/Polysorbate 80/Capmul MCM (22/27/20/31)): 175 nm
Mean Diam. ([5]; 30 min., 200 mg/mL in Miglyol 812/Triacetin/Polysorbate 80/Capmul MCM (22/27/20/31)): 251 ± 45 nm
Mean Diam. ([5]; Initial, 100 mg/mL in Miglyol 812/Triacetin/Polysorbate 80/Capmul MCM (22/27/20/31)): 181 nm
Mean Diam. ([5]; Initial, 200 mg/mL in Miglyol 812/Triacetin/Polysorbate 80/Capmul MCM (22/27/20/31)): 239 ± 17 nm
Solubility [3, 6]: 167 mgA/ml
Solubility [3, 7]: 394 mgA/ml
Solubility ([3]; equilibrium, vehicle Olive oil): 39 mgA/ml
Solubility [3, 10]: 308 mgA/mL
Ave Droplet Size (1:100 dilution) [1, 10]: <2 μ
AUG 0-tlast (Pharmacokinetics in dogs; fasted, 60 mg, 100 mg/mL in Miglyol 812/Triacetin/Polysorbate 80/Capmul MCM (22/27/20/31), Tlast 48 hr): 2900 ± 670 ng·h/mL
Cmax (Pharmacokinetics in dogs; [11]): 200 ± 140 ng/mL
Tmax (Pharmacokinetics in dogs; [11]): 1.5 h
average particle size of emulsion ([4]; Example 15 oil solution (Miglyol 812/propylene carbonate/Cremophor EL, 275 mg/g) plus equal volume water): less than 10 microns
SMILES: CC[C@@H]1C[C@H](N(Cc2cc(C(F)(F)F)cc(C(F)(F)F)c2)C(=O)OC)c2cc(C(F)(F)F)ccc2N1C(=O)OC(C)C [Compound E, [2R,4S] 4-[(3,5-Bis-trifluoromethyl-benzyl)-methoxycarbonyl-amino]-2-ethyl-6-trifluoromethyl-3,4-dihydro-2H-quinoline-1-carboxylic acid isopropyl ester]
chemical degradation or crystallization ([4]; Example 15 oil or emulsion after storage for 24 hr, HPLC, microscopy): No chemical degradation based on HPLC analysis or crystallization based on microscopic examination was detected

— patent US6962931B2, “Self-emulsifying formulations of cholesteryl ester transfer protein inhibitors” (Pfizer Inc., priority 2001, dated 2005)
